The species entered for assay [1] is Rattus norvegicus. Description: Inhibition of rat kidney Na(+)/K(+) ATPase assessed as enzyme activity at 1 mM after 2 hrs by Fiske and Subbarow method relative to control in presence of 1 mM cysteine. On the set-up: scale not given: the % may be the effect or the level left.
For assay [2], the species on record is Rattus norvegicus. As to the kind of experiment: Inhibition of rat kidney Na(+)/K(+) ATPase assessed as enzyme activity at 1 mM after 2 hrs by Fiske and Subbarow method relative to control in presence of 500 uM beta mercaptoethanol. More on the design: scale not given: the % may be the effect or the level left.
The species entered for assay [3] is Rattus norvegicus. Description: Inhibition of rat kidney Na(+)/K(+) ATPase at 1 mM after 2 hrs by Fiske and Subbarow method in presence of DTT.
The species entered for assay [4] is Rattus norvegicus. Description: Inhibition of rat kidney Na(+)/K(+) ATPase assessed as enzyme activity at 1 mM after 2 hrs by Fiske and Subbarow method relative to control. On the set-up: scale not given: the % may be the effect or the level left.
Assay [5] is filed under the species Rattus norvegicus. As to the kind of experiment: Inhibition of rat kidney Ca2+/Mg2+ ATPase assessed after 2 hrs by Fiske and Subbarow method in presence of DTT.
The nature of assay [6]: Inhibition of rat kidney Na(+)/K(+) ATPase.
Assay [7] in a line: Inhibition of rat gastrocnemius Ca2+/Mg2+ ATPase after 2 hrs. The assay is classed as tissue-based.
Assay [8] is described as follows: Inhibition of rat stomach H(+)/K(+) ATPase after 2 hrs by Fiske and Subbarow method. The assay is classed as tissue-based.
For assay [9], the species on record is Rattus norvegicus. As to the kind of experiment: Inhibition of Na(+)/K(+) ATPase in rat kidney assessed as decrease in free sulfydryl groups level at 30 uM after 1 hr by Ellman's method.
The species named for assay [10] is Rattus norvegicus. As to the kind of experiment: Inhibition of rat kidney Na(+)/K(+) ATPase assessed as enzyme activity preincubated for 30 mins after 2 hrs by Fiske and Subbarow method in presence of beta mercaptoethanol.
Assay [11] is filed under the species Rattus norvegicus. Description: Inhibition of rat kidney Na(+)/K(+) ATPase assessed as enzyme activity at 30 uM after 2 hrs by Fiske and Subbarow method relative to control in presence of 1 mM cysteine. On the set-up: scale not given: the % may be the effect or the level left.
Assay [12] is filed under the species Rattus norvegicus. As to the kind of experiment: Inhibition of rat kidney Na(+)/K(+) ATPase assessed as enzyme activity at 30 uM after 2 hrs by Fiske and Subbarow method relative to control in presence of 500 uM beta mercaptoethanol. On the set-up: scale not given: the % may be the effect or the level left.
Assay [13] is filed under the species Rattus norvegicus. As to the kind of experiment: Inhibition of rat kidney Na(+)/K(+) ATPase assessed as enzyme activity at 30 uM after 2 hrs by Fiske and Subbarow method relative to control. More on the design: scale not given: the % may be the effect or the level left.
Assay [14] is filed under the species Rattus norvegicus. Description: Inhibition of rat kidney Na(+)/K(+) ATPase assessed after 2 hrs by Fiske and Subbarow method in presence of DTT.

Calls of active or inactive are those of the source. The calls are words filed in the database; no cut-off is given here.

Turning to `C[C@@H]1O[C@@H](O[C@H]2C[C@@H](O)[C@]3(CO)[C@H]4[C@H](O)C[C@]5(C)[C@@H](C6=CC(=O)OC6)CC[C@]5(O)[C@@H]4CC[C@]3(O)C2)[C@H](O)[C@H](O)[C@H]1O`, the results for the Activity in [1], in assay [2] and in assay [4] were 12%, 10.5% and 11.6%, respectively. Moreover, the result in assay [3] was Active.

For `COc1cc2c(cc1O)oc(=O)c1c3cc(O)c(O)cc3oc21`, the outcome in [5] and in [14] was inactive. For the same compound, the figures for the IC50 in [6], in [7] and in assay [8] were 3 µM, 10 µM and 30 µM, respectively. Also, the result in assay [9] and in [10] was Active. For the same compound, the Activity in [11] is 75.5%; in [12] it was 81.3%; in [13], 6.9%.

Source of the values: ChEMBL document CHEMBL1142447, “Insights into the mechanism of Na+,K+-ATPase inhibition by 2-methoxy-3,8,9-trihydroxy coumestan” (Bioorg Med Chem, 2008).
